# Laboratory results from patent US8431169B2, “Nutraceutical composition and methods of use” (Dacy Tech Pty Ltd, priority 2007, dated 2013).
# What was measured:
# [1] = tested on: Normal Human Articular Chondrocytes (NHAC-knee); assay: BrdU cell proliferation assay; assay type: cell-based
# Protocol: Clonetics® Normal Human Articular Chondrocytes (NHAC-knee) obtained from Lonza Australia Pty Ltd, were grown in chondrocyte growth medium (CGM) supplemented with growth factors. NHACs were used at passage #3-4 for all experiments.
# The following assays were carried out using the protocols as per kit instructions:
# Each of the above fractions was then individually assayed again for viability/cytotoxicity, cell growth and proliferation, apoptosis/necrosis using the tests as previously mentioned.
# iNOS = iNOS expression in IL-1-stimulated cartilage explants; assay type: cell-based, pig; conditions: IL-1-stimulated explants
# Protocol: Simulated digests were prepared using SEQ (0.85 g), BO [2.5 mL (0.85 g)] and indomethacin (0.074 g—a positive anti-inflammatory control). […]
# [2] = tested on: IL-1 stimulated and unstimulated cartilage explants; assay: nitric oxide (nitrite) in media from cartilage explants; assay type: cell-based, pig; conditions: IL-1-stimulated explants; indosim
# Protocol: Simulated digests were prepared using SEQ (0.85 g), BO [2.5 mL (0.85 g)] and indomethacin (0.074 g—a positive anti-inflammatory control). Each test substance was individually suspended in 35 mL of simulated gastric fluid (37 mM NaCl, 0.03N HCl, 3.2 mg/mL pepsin), and shaken at 37° C. for 2 h (Rininger et al., 2000). After this, solution acidity was neutralized by adding an equinormal volume of 2.2 N NaOH (1.15 mL). To this was added 36.15 mL of simulated intestinal fluid (Rininger et al., 2000−30 mM K2HPO4, 160 mM NaH2PO4; 20 mg/mL pancreatin; pH adjusted to 7.4) and the resultant mixture shaken in a 37° C. incubator for a further 2 h. A “blank” was prepared using identical methodology but without including any test substance.
# The supernatant was decanted and centrifuged a second time at 3,000×g for 15 min at 4° C. […]
# Synovial fluid [NO]: Nitrite (NO2^−), a stable oxidation product of NO, was analyzed by the Griess reaction (Fenton et al., 2002). […] Sulfanilamide (0.01 g/mL) and N-(1)-Napthylethylene diamine hydrochloride (1 mg/mL) dissolved in phosphoric acid (0.085 g/L) was added to all wells, and absorbance was read within 5 minutes on a Victor 3 microplate reader at 530 nm. Sample absorbance was compared to a sodium nitrite standard.
# [3] = tested on: IL-1 stimulated and unstimulated cartilage explants; assay: GAG release into media by cartilage explants (1,9-DMB assay); assay type: cell-based, pig; conditions: indosim 0.02 mg/mL
# Protocol: Front legs of market weight pigs (5-7 months old, 200-250 lbs) were obtained from a local abattoir. Legs were chilled on crushed ice until dissection. Using aseptic technique, the intercarpal joint was opened and the cartilage surfaces exposed. A 4 mm dermal biopsy punch was used to take explants ( 0.5 mm thickness; 11-15 mg/explant) of healthy cartilage from the weight-bearing region of both articulating surfaces of the intercarpal joint. Cartilage pieces were washed 3 times in Dubelco's Modified Eagle Medium (DMEM) supplemented with NaHCO3. Two cartilage discs were placed into each well of 24-well tissue culture plates containing DMEM supplemented with amino acids, sodium selenite, manganese sulfate, NaHCO3 and ascorbic acid (TCM-tissue culture medium). Plates were incubated at 37° C., 7% CO2 in a humidified atmosphere for up to 144 h. Every 24 h media was completely aspirated into 1 mL microcentrifuge tubes and immediately replaced with control, conditioned and/or stimulated media (described below) before being returned to the incubator. […] Media was analyzed for [PGE2], [GAG], and [NO]. […] Media GAG concentration was determined using a 1,9-DMB spectrophotometric assay (Chandrasekhar et al., 1987). […] Plates were incubated in the dark for 10 minutes, and absorbance was read on a Victor 3 microplate reader at 530 nm. Sample absorbance was compared to that of a chondroitin sulfate standard. […]
# aggrecan = aggrecan RNA expression in cartilage explants (real time RT-PCR); assay type: cell-based, pig; conditions: indosim 0.02 mg/mL
# Protocol: Front legs of market weight pigs (5-7 months old, 200-250 lbs) were obtained from a local abattoir. Legs were chilled on crushed ice until dissection. Using aseptic technique, the intercarpal joint was opened and the cartilage surfaces exposed. A 4 mm dermal biopsy punch was used to take explants (˜0.5 mm thickness; 11-15 mg/explant) of healthy cartilage from the weight-bearing region of both articulating surfaces of the intercarpal joint. Cartilage pieces were washed 3 times in Dubelco's Modified Eagle Medium (DMEM) supplemented with NaHCO3. Two cartilage discs were placed into each well of 24-well tissue culture plates containing DMEM supplemented with amino acids, sodium selenite, manganese sulfate, NaHCO3 and ascorbic acid (TCM—tissue culture medium). Plates were incubated at 37° C., 7% CO2 in a humidified atmosphere for up to 144 h. Every 24 h media was completely aspirated into 1 mL microcentrifuge tubes and immediately replaced with control, conditioned and/or stimulated media (described below) before being returned to the incubator. The collected media was stored at −80° C. until analysis. Cartilage was harvested at the end of each experiment with one explant per well stained for cytotoxicity and the remaining cartilage immediately frozen at −80° C. […]
# SEQsim was prepared as explained above. […] Media was analyzed for [PGE2], [GAG], and [NO]. […]
# [4] = tested on: IL-1-stimulated and unstimulated cartilage explants; assay: cell viability staining of cartilage explants (C-AM / EthD-1); assay type: cell-based, pig; conditions: indosim 0.02 mg/mL
# Protocol: Front legs of market weight pigs (5-7 months old, 200-250 lbs) were obtained from a local abattoir. Legs were chilled on crushed ice until dissection. Using aseptic technique, the intercarpal joint was opened and the cartilage surfaces exposed. A 4 mm dermal biopsy punch was used to take explants ( 0.5 mm thickness; 11-15 mg/explant) of healthy cartilage from the weight-bearing region of both articulating surfaces of the intercarpal joint. Cartilage pieces were washed 3 times in Dubelco's Modified Eagle Medium (DMEM) supplemented with NaHCO3. Two cartilage discs were placed into each well of 24-well tissue culture plates containing DMEM supplemented with amino acids, sodium selenite, manganese sulfate, NaHCO3 and ascorbic acid (TCM-tissue culture medium). Plates were incubated at 37° C., 7% CO2 in a humidified atmosphere for up to 144 h. Every 24 h media was completely aspirated into 1 mL microcentrifuge tubes and immediately replaced with control, conditioned and/or stimulated media (described below) before being returned to the incubator. […] Media was analyzed for [PGE2], [GAG], and [NO]. […] Cell viability was determined using a commercially available viability staining kit (Invitrogen; Burlington ON) (Pearson et al., 2007). […] The plate was read from the bottom of each well using 10 horizontal steps, 3 vertical steps, and a 0.1 mm displacement.
Compound,NHAC proliferation (BrdU) [1],IL-1-mediated iNOS expression (iNOS),IL-1-mediated NO production [2],"media [GAG] compared with stimulated controls ([3]; IL-1-stimulated explants, p=0.1)",media [GAG] compared with unstimulated controls ([3]; unstimulated explants),aggrecan increase after IL-1 stimulation (aggrecan; IL-1-stimulated (10 ng/mL) explants),increase in aggrecan expression (aggrecan; unstimulated explants) [fold],cell viability ([4]; IL-1-stimulated explants),cell viability ([4]; unstimulated explants)
"CCCCCCCCC=CCCCCCCCC(=O)O [Fraction F1.4, 9-Octadecenoic acid]",most active,,,,,,,,
"COc1ccc2c(c1)c(CC(=O)O)c(C)n2C(=O)c1ccc(Cl)cc1 [indosim, indomethacin]",,augmenting effect,increase,"elevated compared with stimulated controls over the duration of the experiment, but not significantly",significantly higher,completely abolished,58,no significant effect,no significant effect
